Like-named read-outs stand apart in the source and are kept apart here.

The target in one assay is CDK9 (Homo sapiens, UniProt P50750). The assay is described as follows: CDK9 kinase activity inhibition (ADP-Glo). The format is biochemical. The following applies: 10 μM ATP, 2 h at room temperature. The method, then:
(§1) CDK9 kinase was manufactured by the company or commercially available. CDK1, CDK2 and CDK7 were purchased from Carna Biosciences, Inc. ADP-Glo™ kit was purchased from Promega Corporation. Dithiothreitol (DTT), Tween-20, dimethylsulfoxide (DMSO), bovine serum albumin (BSA) and Tris base were obtained from Sigma at the available highest level of purity.
(§2) General procedures for CDK inhibition determination: The determination was performed in a buffer consisting of 50 μM DTT, 0.1% BSA, 40 mM Tris-HCl pH=7.5 and 20 mM MgCl2. The compound dissolved in DMSO and CDK enzymes were diluted with the buffer. 1 μL of the compound solution in 5% DMSO and 2 μL of the CDK enzyme solution were added to a white low-volume 384-well microtiter plate and incubated for 20 min at room temperature. Ultra pure ATP and the substrate polypeptide (purchased from GenScript Biotech Corporation) were diluted together into the buffer and added to a mixed solution of the compound and the enzyme, 2 μL per well. They were incubated for 2 h at room temperature.
(§3) After the reaction was completed, 5 μL of ADP-Glo™ reagent was added to each well and incubated for 40 min at room temperature, and then 10 μL of test reagent was added to each well and incubated for 30 mi at room temperature. Chemical luminescence values were measured by using a Tecan (Männedorf, Switzerland) multifunctional plate reader Spark for plate reading. The IC50 value of the inhibitor was obtained by fitting the chemical luminescence intensity ratio in the S-shaped dosage reaction curve using Prism 7 (La Jolla, 15 CA) relative to the concentration of the inhibitor.
In general terms: ADP-Glo turns the ADP formed in a reaction into a luminescent signal.

Another assay relates to MOLM-13 cells. The assay is described as follows: Tumor cell proliferation inhibition experiment (CellTiter-Glo). The format is cell-based. The following applies: Homo sapiens, read-out: MOLM-13 (nM) IC50, cell proliferation inhibition. From the text:
An acute myeloid leukemia (AML) cell line (MOLM-13) was purchased from NANJING COBIOER BIOSCIENCES CO., LTD. An RPMI1640 medium and a penicillin-streptomycin double-antibody were purchased from ThermoFisher (Waltham, MA, USA). Certified fetal bovine serum (FBS) was purchased from Biological Industries (Israel). A Corning 384-well cell culture plate was purchased from CORNING (USA). Cell-Titer Glo® was purchased from Promega Corporation (Madison, WI, USA).
To evaluate the ability of the synthetic compound to inhibit the proliferation of MOLM-13 cells, MOLM-13 cells at an exponential growth stage were inoculated at a density of 500,000 cell/mL in the RPMI1640 medium containing 20% bovine serum and 1% penicillin-streptomycin double-antibody, and the 384-well plate contained 20 μL per well and placed overnight in an 37° C., 5% CO2 incubator. Compound powder was dissolved in DMSO to prepare a storage mother liquor with a concentration of 2 mM, and 12 dilutions with three-fold gradient concentrations were further prepared. 1 μL of gradient-diluted DMSO solution was added to 99 μL of cell culture medium (the final maximum concentration of the compound in the assay was 10 uM and the final concentration of DMSO was 0.5%). 20 μL of compound solution in the medium was added at gradients to each cell-coated test well of the 384-well plate. After the compound solution was added, the 384-well plate was incubated for 16 h in a 37° C., 5% CO2 incubator. Cell viability was determined by quantifying ATPs present in test wells using the CellTiter-Glo kit from Promega (Madison, WI, USA). After 20 minutes of incubation, readings were obtained under a chemical luminescence procedure using Tecan's Spark multifunctional plate reader. The concentration (IC50 value) of the compound at which the cell survival rate was inhibited by 50% was determined using an S-shaped dosage response model (variable slope, four parameters) in Prism 7 (LaJolla, CA).
A general note: In ATP-based viability assays light output follows the ATP content of the culture.

Another assay deals with T1, CDK2 (Homo sapiens, UniProt P24941).
T1 construct: purchased Carna Biosciences, Inc
The assay is described as follows: CDK2 kinase activity inhibition (ADP-Glo). The assay is classed as biochemical. The settings on record: 10 μM ATP, 2 h at room temperature. The method, then: as §1, §2, §3

The target in a further assay is T2, CDK7 (Homo sapiens, UniProt P50613).
T2 construct: purchased Carna Biosciences, Inc
T2 sequence (P50613 whole entry): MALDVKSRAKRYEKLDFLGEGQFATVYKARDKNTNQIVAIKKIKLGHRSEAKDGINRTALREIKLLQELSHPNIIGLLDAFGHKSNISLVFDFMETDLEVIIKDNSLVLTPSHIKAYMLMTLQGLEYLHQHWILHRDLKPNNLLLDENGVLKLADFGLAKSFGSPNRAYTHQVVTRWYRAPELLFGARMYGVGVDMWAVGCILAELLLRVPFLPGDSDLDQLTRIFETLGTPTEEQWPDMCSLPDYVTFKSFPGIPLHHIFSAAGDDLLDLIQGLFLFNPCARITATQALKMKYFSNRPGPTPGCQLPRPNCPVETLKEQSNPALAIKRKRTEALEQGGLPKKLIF
T2 sequence (P51946 whole entry partner): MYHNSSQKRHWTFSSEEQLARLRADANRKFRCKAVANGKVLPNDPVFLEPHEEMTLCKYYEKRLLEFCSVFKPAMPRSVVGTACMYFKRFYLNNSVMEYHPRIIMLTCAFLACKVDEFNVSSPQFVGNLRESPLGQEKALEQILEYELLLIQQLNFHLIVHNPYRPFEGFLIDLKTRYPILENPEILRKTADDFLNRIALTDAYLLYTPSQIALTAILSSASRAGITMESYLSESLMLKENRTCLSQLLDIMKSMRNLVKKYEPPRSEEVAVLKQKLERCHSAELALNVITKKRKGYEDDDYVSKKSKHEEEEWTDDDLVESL
T2 sequence (P51948 whole entry partner): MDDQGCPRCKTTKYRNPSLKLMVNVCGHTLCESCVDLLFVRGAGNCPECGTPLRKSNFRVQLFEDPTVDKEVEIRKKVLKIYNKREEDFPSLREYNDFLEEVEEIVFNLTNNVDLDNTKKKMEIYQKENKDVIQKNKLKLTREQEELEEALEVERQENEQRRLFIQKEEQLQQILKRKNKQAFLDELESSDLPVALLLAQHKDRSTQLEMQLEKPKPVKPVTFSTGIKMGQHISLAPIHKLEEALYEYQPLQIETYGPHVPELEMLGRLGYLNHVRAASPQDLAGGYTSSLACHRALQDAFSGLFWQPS
The assay is described as follows: CDK7 kinase activity inhibition (ADP-Glo). The assay is classed as biochemical. The settings on record: 10 μM ATP, 2 h at room temperature. The method, then:
as §1, §2, §3

Setting [1] is: acute myeloid leukemia cell line MOLM-13, 16 h incubation, CellTiter-Glo.

Chain of CDK9 (P50750 whole entry): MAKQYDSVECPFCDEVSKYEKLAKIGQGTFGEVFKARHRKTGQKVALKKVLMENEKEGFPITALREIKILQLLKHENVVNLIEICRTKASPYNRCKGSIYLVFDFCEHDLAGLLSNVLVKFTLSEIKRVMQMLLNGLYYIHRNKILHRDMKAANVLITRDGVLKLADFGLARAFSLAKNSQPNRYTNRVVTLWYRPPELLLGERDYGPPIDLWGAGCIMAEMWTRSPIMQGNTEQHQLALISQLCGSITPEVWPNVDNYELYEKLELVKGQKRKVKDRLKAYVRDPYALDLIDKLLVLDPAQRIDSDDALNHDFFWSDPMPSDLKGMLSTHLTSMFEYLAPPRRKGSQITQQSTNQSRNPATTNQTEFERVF
Chain of CDK9 (O60563 whole entry partner): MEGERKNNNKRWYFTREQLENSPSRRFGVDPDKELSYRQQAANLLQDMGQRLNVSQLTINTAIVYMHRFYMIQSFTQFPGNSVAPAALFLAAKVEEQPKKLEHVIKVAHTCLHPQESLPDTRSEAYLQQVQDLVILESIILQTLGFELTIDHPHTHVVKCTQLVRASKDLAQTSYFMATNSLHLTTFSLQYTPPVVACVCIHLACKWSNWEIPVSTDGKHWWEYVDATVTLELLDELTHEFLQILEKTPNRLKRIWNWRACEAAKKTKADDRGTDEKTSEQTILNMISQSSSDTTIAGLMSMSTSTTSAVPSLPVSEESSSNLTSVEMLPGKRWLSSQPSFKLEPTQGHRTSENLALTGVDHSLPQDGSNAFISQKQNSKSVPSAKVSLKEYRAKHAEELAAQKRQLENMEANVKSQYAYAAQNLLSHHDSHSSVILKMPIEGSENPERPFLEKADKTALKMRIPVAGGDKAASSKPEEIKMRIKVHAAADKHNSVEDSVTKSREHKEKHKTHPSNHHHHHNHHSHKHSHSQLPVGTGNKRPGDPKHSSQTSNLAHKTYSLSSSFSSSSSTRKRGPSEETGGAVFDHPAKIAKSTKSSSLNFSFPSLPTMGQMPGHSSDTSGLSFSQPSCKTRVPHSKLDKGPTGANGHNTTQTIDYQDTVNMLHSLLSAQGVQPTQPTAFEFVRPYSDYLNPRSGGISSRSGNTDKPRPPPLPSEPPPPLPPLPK

Turning to `CC(=O)NC[C@H]1CCC(F)(F)CN1C(=O)c1nc(Nc2cc(C#N)ccn2)ccc1C` [Compound 1, (R)—N-((1-(6-((4-cyanopyridin-2-yl)amino)-3-methylpyridine-2-carbonyl)-5,5-difluoropiperidin-2-yl)methyl)acetamide], the IC50 against CDK9 came to 4.9 nM; in the assay on MOLM-13 cells (setting [1]), 24.8 nM; on CDK2 it was 36.7 nM; against CDK7 it was 1950 nM.
Turning to `CC(=O)NC[C@H]1CCC(F)(F)CN1C(=O)c1nc(Nc2cc(CF)ccn2)ccc1C` [Compound 28, (R)—N-((5,5-difluoro-1-(6-((4-(fluoromethyl)pyridin-2-yl)amino)-3-methylpyridine-2-carbonyl)piperidin-2-yl)methyl)acetamide], the IC50 at CDK9 was 9.4 nM; in the assay with MOLM-13 cells (setting [1]), 133 nM; against CDK2 it was 1260 nM.
On to `Cc1ccc(Nc2cc(OC(F)(F)F)ccn2)nc1C(=O)N1CC(F)(F)CCC1C(=O)N1CCCC1` (stereo not shown) [Compound 47, (5,5-Difluoro-1-(3-methyl-6-((4-(trifluoromethoxy)pyridin-2-yl)amino)pyridine-2-carbonyl)piperidin-2-yl)(pyrrolidin-1-yl)methanone], for which the values for the IC50 against CDK9, in the assay with MOLM-13 cells (setting [1]) and at CDK2 were 119 nM, 938 nM and 844 nM, respectively.
In the case of `Cc1ccc(Nc2cc(OC(F)(F)F)ccn2)nc1C(=O)N1CC(F)(F)CC[C@@H]1CN1CCCC1=O` [Compound 48, (R)-1-((5,5-difluoro-1-(3-methyl-6-((4-(trifluoromethoxy)pyridin-2-yl)amino)pyridine-2-carbonyl)piperidin-2-yl)methyl)pyrrolidinone-2-one], the IC50 at CDK9 was found to be 16.4 nM; with MOLM-13 cells (setting [1]), 683 nM; on CDK2 it was 2870 nM.
For `Cc1ccc(Nc2cc(OC(F)(F)F)ccn2)nc1C(=O)N1CC(F)(F)CC[C@@H]1CNC(=O)C1CC1` [Compound 51, (R)—N-((5,5-difluoro-1-(3-methyl-6-((4-(trifluoromethoxy)pyridin-2-yl)amino)pyridine-2-carbonyl)piperidin-2-yl)methyl)cyclopropanecarboxamide], the IC50 on CDK9 was 7.7 nM; in the assay with MOLM-13 cells (setting [1]), 112 nM; at CDK2, 1270 nM.
As for `CC(=O)N[C@@H]1C[C@H](Nc2nc(Nc3cc(OC(F)(F)F)ccn3)ccc2C)CC(F)(F)C1` [Compound 60, N-((1R,5S)-3,3-difluoro-5-((3-methyl-6-((4-(trifluoromethoxy)pyridin-2-yl)amino)pyridin-2-yl)amino)cyclohexyl)acetamide], the IC50 at CDK9 stood at 70.5 nM; in the assay on MOLM-13 cells (setting [1]) it was 894 nM; against CDK2, 797 nM.
The like results for `CC(=O)NC[C@H]1CCC(F)(F)CN1C(=O)c1nc(Nc2cc(OC(F)(F)F)ccn2)ccc1F` [Compound 64, (R)—N-((5,5-difluoro-1-(3-fluoro-6-((4-(trifluoromethoxy)pyridin-2-yl)amino)pyridine-2-carbonyl)piperidin-2-yl)methyl)acetamide] were, in that order, 6.3 nM, 120 nM and 120 nM.
For `CC(=O)NC[C@H]1CCC(F)(F)CN1C(=O)c1cccc(Nc2cc(OC(F)(F)F)ccn2)n1` [Compound 80, (R)—N-((5,5-difluoro-1-(6-((4-(trifluoromethoxy)pyridin-2-yl)amino)pyridine-2-carbonyl)piperidin-2-yl)methyl)acetamide] the same measures were 7.2 nM, 198 nM and 258 nM.
For the molecule `CC(=O)NC[C@H]1CCC(F)(F)CN1C(=O)c1nc(Nc2cc(OC(F)(F)F)ccn2)ccc1Cl` [Compound 84, (R)—N-((1-(3-chloro-6-((4-(trifluoromethoxy)pyridin-2-yl)amino)pyridine-2-carbonyl)-5,5-difluoropiperidin-2-yl)methyl)acetamide], the IC50 against CDK9 was 6.2 nM; with MOLM-13 cells (MOLM-13, 16 h), 58.6 nM; against CDK2, 577 nM.

These data come from patent US12729192B2, “CDK9 inhibitor and use thereof” (PHARMABLOCK SCIENCES (NANJING), INC., priority 2020, dated 2026).
